Data taken from patent US11738031B2, “Compositions and methods for preventing or treating muscle conditions” (The Board of Trustees of the Leland Stanford Junior …, priority 2017, dated 2023).
Entries after “also recorded” stand apart in the source; their conditions may differ.

Experiments:
[1] = system: muscle stem cells (MuSCs); assay: MuSC proliferation in culture, cell number count (hemocytometer); format: cell-based, mouse
Method: Muscle stem cell culture, treatment and lentiviral infection: Following isolation, we resuspended MuSCs in myogenic cell culture medium containing DMEM/F10 (50:50), 15% FBS, 2.5 ng ml^−1 fibroblast growth factor-2 (FGF-2 also known as bFGF) and 1% penicillin-streptomycin. We seeded MuSC suspensions at a density of 500 cells per cm^2 surface area. We maintained cell cultures at 37° C. in 5% CO2 and changed medium daily. For PGE2, 15-PGDH inhibitor and EP4 receptor antagonist treatment studies, we added 1-200 ng/ml Prostaglandin E2 (Cayman Chemical) (unless specified in the figure legends, 10 ng/ml was the standard concentration used), and/or 1 μM EP4 antagonist (ONO-AE3-208, Cayman Chemical), or 1 μM 15-PGDH inhibitor (SW033291, Cayman Chemical) to the MuSCs cultured on collagen coated dishes for the first 24 h. The cells were then trypsinized and cells reseeded onto hydrogels for an additional 6 days of culture. All treatments were compared to their solvent (DMSO) vehicle control. For stripped serum assays, we resuspended isolated MuSCs in medium containing DMEM/F10 (50:50), 15% charcoal stripped FBS (Gibco, cat #12676011), 2.5 ng ml^−1 bFGF and 1% penicillin-streptomycin. […]
Proliferation assays: To assay proliferation, we used three different assays (hemocytometer, VisionBlue, and EdU). […] For hemocytometer cell number count, we collected cells at indicated timepoints by incubation with 0.5% trypsin in PBS for 5 min at 37° C. and quantified them using a hemocytometer at least 3 times. Additionally, we used the VisionBlue Quick Cell Viability Fluorometric Assay Kit (BioVision, catalog #K303) as a readout for cell growth in culture. Briefly, we incubated MuSCs with 10% VisionBlue in culture medium for 3 h, and measured fluorescence intensity on a fluorescence plate reader (Infinite M1000 PRO, Tecan) at Ex=530-570 nm, Em=590-620 nm. […] We quantified EdU positive cells using the MetaMorph Image Analysis software (Molecular Devices). Data analyses were blinded, where researchers performing cell scoring were unaware of the treatment condition given to sample groups analyzed. […]

[2] = system: cyclic AMP levels in MuSCs; assay: cAMP activity assay (cAMP-Glo); format: cell-based, mouse; conditions: PGE2 10 ng/ml, 1 hr
Method: cAMP activity assay: MuSCs were treated with DMSO (vehicle) or PGE2 (10 ng/ml) for 1 h and cyclic AMP levels measured according to the cAMP-Glo Assay protocol optimized by the manufacturer (Promega). Each sample was assayed in triplicate and in two independent experiments.
MuSCs were treated with DMSO (vehicle) or PGE2 (10 ng/ml) for 1 h and cyclic AMP levels measured according to the cAMP-Glo Assay protocol optimized by the manufacturer (Promega). Each sample was assayed in triplicate and in two independent experiments.

[3] = system: prostaglandin receptors (Ptger1-4); assay: Quantitative RT-PCR of prostaglandin receptors in MuSCs; format: cell-based, mouse; conditions: 24 hr PGE2 treatment of MuSCs
Method: Quantitative RT-PCR: We isolated RNA from MuSCs using the RNeasy Micro Kit (Qiagen). […] We reverse-transcribed cDNA from total mRNA from each sample using the SensiFAST™ cDNA Synthesis Kit (Bioline). We subjected cDNA to RT-PCR using SYBR Green PCR Master Mix (Applied Biosystems) or TaqMan Assays (Applied Biosystems) in an ABI 7900HT Real-Time PCR System (Applied Biosystems). We cycled samples at 95° C. for 10 min and then 40 cycles at 95° C. for 15 s and 60° C. for 1 min. […] For SYBR Green qRT-PCR, we used the following primer sequences: Gapdh, forward 5′-[sequence]-3′ (SEQ ID NO: 1), reverse 5′-[sequence]-3′ (SEQ ID NO: 2); Hpgd, forward 5′-[sequence]-3′ (SEQ ID NO: 3), reverse 5′-[sequence]-3′ (SEQ ID NO: 4); Ptges, forward 5′-[sequence]-3′ (SEQ ID NO: 5), reverse 5′-[sequence]-3′ (SEQ ID NO: 6); Ptges2, forward 5′-[sequence]-3′ (SEQ ID NO: 7), reverse 5′-[sequence]-3′ (SEQ ID NO: 8); Ptger1, forward 5′ [sequence]-3′ (SEQ ID NO: 9), reverse, 5′ [sequence]-3′ (SEQ ID NO: 10), and Ptger2, forward 5′-[sequence]-3′ (SEQ ID NO: 11), reverse 5′-[sequence]-3′ (SEQ ID NO: 12). TaqMan Assays (Applied Biosystems) were used to quantify Pax7, Myogenin, Slco2a1 (PGT), Ptger3 and Ptger4 in samples according to the manufacturer instructions with the TaqMan Universal PCR Master Mix reagent kit (Applied Biosystems). Transcript levels were expressed relative to Gapdh levels. […]

[4] = system: aged MuSCs; assay: Clonal aged MuSC proliferation and fate by time-lapse microscopy (48 h); format: cell-based, mouse
Source text: Clonal muscle stem cell proliferation and fate analyses: We assayed clonal muscle stem cell proliferation by time-lapse microscopy as previously described^56. Briefly, we treated isolated aged MuSCs with PGE2 (Cayman Chemical) or vehicle (DMSO) for 24 hr. After five days of growth on hydrogels, cells were reseeded at a density of 500 cells per cm^2 surface area in hydrogel microwells with 600 μm diameter. For time-lapse microscopy we monitored cell proliferation for those wells with single cells beginning 12 hr (day 0) to two days after seeding and recorded images every 3 min at 10× magnification using a PALM/AxioObserver Z1 system (Carl Zeiss MicroImaging) with a custom environmental control chamber and motorized stage. We changed medium every other day in between the acquisition time intervals. We analyzed time-lapse image sequences using the Baxter Algorithms for Cell Tracking and Lineage Reconstruction to identify and track single cells and generate lineage trees^5,6,8-10.
Viable and dead cells were distinguished in time-lapse sequences based on phase-contrast boundary and motility maintenance or loss, respectively. […] The values were estimated using the equations described in^6, and found in Table 1. We denote the proliferation rates in the two intervals p24 and p48 and the corresponding death rates d24 and d48. […] The modeled cell counts in the two time intervals are given by […]

[5] = PGE2 20 μg (or 4 mg/kg); cited from earlier work
[6] = aged MuSC clones, acute PGE2 treatment, time-lapse 48 h
[7] = first 24 hour interval, aged MuSCs
[8] = second 24 hour interval, aged MuSCs
[9] = transient 1 day PGE2, 48 h tracking

Compound: CCCCC[C@H](O)/C=C/[C@H]1[C@H](O)CC(=O)[C@@H]1C/C=C\CCCC(=O)O [PGE2, prostaglandin E2]
- MuSC proliferation in medium with charcoal stripped serum ([1]; PGE2 10 ng/ml added to stripped serum medium, 7 days on hydrogels): divided upon addition of PGE2; also recorded: rescued this block in proliferation
- increase in the number of MuSCs relative to controls ([1]; PGE2 10 ng/ml, acute 1-day exposure, counted one week later, young MuSCs on hydrogel): 6 fold
- intracellular cAMP levels [2]: elevated downstream intracellular cyclic AMP (cAMP) levels
- transcript levels of prostaglandin receptors (Ptger1-4) after PGE2 treatment [3]: only receptors upregulated after PGE2 treatment of MuSCs are Ptger1 and Ptger4; also recorded: the most highly expressed receptor in MuSCs is Ptger4
- percent increase in dead cell count [4, 6]: 0.1%
- percent increase in live cell count [4, 6]: 5.4%
- d24, estimated death rate [4, 7]: 0.0067 per hours
- p24, estimated proliferation rate [4, 7]: 0.0475 per hours
- d48, estimated death rate [4, 8]: 0.0012 per hours
- p48, estimated proliferation rate [4, 8]: 0.0538 per hours
- cell death in aged MuSC clones [4, 9]: profound reduction in cell death
- proliferation of aged MuSC clones [4, 9]: marked increase in proliferation
- cumulative cell numbers of aged MuSC clones ([4]; transient 1 day PGE2, 48 h tracking, spanning 6 generations): remarkable increase in cumulative cell numbers
- tolerability of proposed maximum dose in rodents [5]: without deleterious effects
